{
  "source": "patent US11337971B2",
  "about": "“Dopamine D3 receptor selective antagonists/partial agonists and uses thereof” (THE UNITED STATES OF AMERICA, AS REPRESENTED BY THE …, priority 2018, dated 2022)",
  "key": {"[1]": {"target": "5-HT2C (Homo sapiens (Human), UniProt P28335)", "sequence (P28335 33-458, species assumed)": "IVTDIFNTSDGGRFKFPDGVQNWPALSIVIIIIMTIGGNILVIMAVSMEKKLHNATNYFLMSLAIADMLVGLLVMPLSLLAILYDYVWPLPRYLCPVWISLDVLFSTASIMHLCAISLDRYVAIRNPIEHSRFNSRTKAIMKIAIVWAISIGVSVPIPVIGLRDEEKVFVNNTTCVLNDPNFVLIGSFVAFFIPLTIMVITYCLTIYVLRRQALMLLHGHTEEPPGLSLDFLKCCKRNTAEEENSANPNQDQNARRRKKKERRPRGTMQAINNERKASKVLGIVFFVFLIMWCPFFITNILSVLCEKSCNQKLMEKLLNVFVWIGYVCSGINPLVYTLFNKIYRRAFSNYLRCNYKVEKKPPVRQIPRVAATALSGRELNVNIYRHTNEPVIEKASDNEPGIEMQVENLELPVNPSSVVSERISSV", "assay": "5-HT2C [125I]DOI binding", "settings": "Table 3a; read-out: 5-HT2C [125I]DOI Ki ± SEM"}, "[2]": {"system": "Male Long-Evans rats", "assay": "Maintenance of oxycodone self-administration and oxycodone-seeking after oxycodone was replaced by saline", "type": "in vivo, rat", "settings": "i.p.", "method": "Four groups of rats (n=7/group) were first trained to self-administer oxycodone at a dose of 100 μg/kg/infusion for 2 weeks followed by 50 μg/kg/infusion for the rest of the training sessions and for the test session. The daily self-administration of oxycodone at the low dose continued until the average oxycodone infusions/session varied less than 10% over 3 consecutive sessions (normally 6-10 sessions were required to meet this criterion of stability). On the following test day, the groups of rats were first systemically injected with either vehicle or a dose of compound (±)-29 (5, 15 or 25 mg/kg, i.p.), and 15 min later, the animals were allowed to self-administer oxycodone.\nFollowing completion of the self-administration testing, the rats continued to self-administer oxycodone (50 μg/kg/infusion) for additional 4 sessions. On the next day, the animals were re-assigned into 3 groups, and pretreated with either vehicle or 1 of the 2 doses of compound (±)-29 (5 or 15 mg/kg). Fifteen min later, the animals were placed in the chambers, and allowed to lever-press for an extinction session during which saline was substituted for […]. Other conditions remain the same as […] session."}, "[3]": {"assay": "Phase I metabolic stability in rat liver microsomes", "type": "in vitro ADME", "settings": "Rat liver microsomes", "text": "Rat Liver Microsome Metabolic Stability: Test compounds including 3-F analogues (C4a, C4b, C5a, C5b) and 29, 19 as well as the R-, S-enantiomers of C4a, C5a, 29 and 19 were screened for phase I metabolic stability in rat liver microsomes."}, "[4]": {"target": "human D4R (Homo sapiens (Human), UniProt P21917)", "sequence (P21917 whole entry)": "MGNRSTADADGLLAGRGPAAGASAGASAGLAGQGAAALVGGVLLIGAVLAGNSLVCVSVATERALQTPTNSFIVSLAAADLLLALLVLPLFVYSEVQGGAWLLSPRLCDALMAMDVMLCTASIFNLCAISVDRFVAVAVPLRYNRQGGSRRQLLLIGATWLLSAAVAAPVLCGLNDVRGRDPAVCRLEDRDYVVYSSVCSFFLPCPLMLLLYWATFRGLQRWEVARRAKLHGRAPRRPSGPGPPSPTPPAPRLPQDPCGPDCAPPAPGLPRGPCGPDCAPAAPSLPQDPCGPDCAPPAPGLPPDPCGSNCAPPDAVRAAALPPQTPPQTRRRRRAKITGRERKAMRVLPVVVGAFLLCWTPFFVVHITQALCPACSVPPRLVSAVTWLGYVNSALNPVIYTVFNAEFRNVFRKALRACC", "assay": "Radioligand competition binding, [3H]N-methylspiperone, HEK293 membranes expressing human D4R", "settings": "Table 1A; μM; read-out: D4R Ki", "summary_of_the_method": "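HEK293 membranes with human D4R (20 μg protein) and 0.4 nM [3H]N-methylspiperone in EBSS with sodium metabisulfite, 1 h at room temperature, filtration read-out. Compounds 10 μM to 10 pM; nonspecific binding with 10 μM butaclamol. Ki by Cheng-Prusoff from IC50, at least three experiments.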"}},
  "note": "“Also recorded” adds a separate entry of the source.",
  "data": [
    {"smiles": "CCc1cc(Cl)c(OC)c(N2CCN(CC(O)CCNC(=O)c3cc4ccccc4[nH]3)CC2)c1", "note": "(racemic) [Compound 29, N-(4-(4-(3-chloro-5-ethyl-2-methoxyphenyl)piperazin-1-yl)-3-hydroxybutyl)-1H-indole-2-carboxamide]", "values": [
      {"measurement": "Ki", "setting": "[1]", "value": "2190 ± 460", "unit": "nM"},
      {"measurement": "oxycodone infusions during maintenance of self-administration", "setting": "[2]; 5-25 mg/kg", "value": "dose-dependently decreased oxycodone infusions; also recorded: dose-dependently reduced oxycodone self-administration"},
      {"measurement": "oxycodone-seeking behavior (extinction responding) when saline was substituted for oxycodone", "setting": "[2]; 5 or 15 mg/kg", "value": "dose-dependently inhibited oxycodone-seeking behavior; also recorded: dose-dependently reduced"},
      {"measurement": "% at 0 min.", "setting": "[3]; 0 min", "value": 100, "unit": "%"},
      {"measurement": "% at 30 min.", "setting": "[3]; 30 min", "value": 95, "unit": "%"},
      {"measurement": "% at 60 min.", "setting": "[3]; 60 min", "value": 85, "unit": "%"},
      {"measurement": "Ki", "setting": "[4]", "value": "> 100", "unit": "µM"}
    ]}
  ]
}
